From PMC6197744, “Triazolo[4,5-d]pyrimidines as Validated General Control Nonderepressible 2 (GCN2) Protein Kinase Inhibitors Reduce Growth of Leukemia Cells” (Computational and Structural Biotechnology Journal, 2018)
In brackets after ≈: the same amount, converted by molar mass. Where two headings read alike, the source gives them in different places.

Key:
[1] = biological target: T1, HRI (Homo sapiens, UniProt Q9BQI3); test: radiometric HotSpot kinase assay; format: biochemical; conditions: 10 μM compound, 10 μM ATP; read-out: % Enzyme inhibition at 10 μM, HRI
T1 construct: purchased Reaction Biology Corporation (Malvern, PA)
Protocol: (§1) Compounds 1–9 were screened in a radiometric […] kinase assay against human GCN2 and other kinases involved in the UPR and ISR pathways (Table 1). […] The most soluble of the potent tool compounds (1 and 2) were selected for in vitro cell-based assays where the phosphorylation of eIF2α (p-eIF2α) was used as a readout for GCN2 inhibition.
(§2) In vitro compound profiling for recombinant GCN2, PERK, HRI, PKR, or IRE1 kinases were performed at Reaction Biology Corporation (Malvern, PA) using the HotSpot kinase assay. Briefly, all compounds provided for testing were dissolved in 10 mM DMSO stock solutions. Serial dilutions were conducted by epMotion 5070 in DMSO. Specific kinase/substrate mixtures and required cofactors were prepared in reaction buffer (20 mM Hepes (pH 7.5), 10 mM MgCl2, 1 mM EGTA, 0.02% Brij35, 0.02 mg/ml BSA, 0.1 mM Na3VO4, 2 mM DTT, 1% DMSO). Compounds were added to the kinase reaction mixture by Acoustic technology (Echo550; nanoliter range) and incubated for 20 min at room temperature. The kinase reaction was initiated by adding ^33P ATP to a final concentration of 10 μM for single point kinase activity reading or to the ATP Km of GCN2 for IC50 readings. The reaction was incubated or 2 h at room temperature and kinase activity was detected by filter-binding method. IC50 values and curves were generated with GraphPad Prism 7 (GraphPad software).

[2] = biological target: T2, IRE1 (Homo sapiens, UniProt O75460); test: radiometric HotSpot kinase assay; format: biochemical; conditions: 10 μM compound, 10 μM ATP; read-out: % Enzyme inhibition at 10 μM, IRE1
T2 construct: purchased Reaction Biology Corporation (Malvern, PA)
Protocol: as §1, §2

[3] = biological target: T3, PKR (Homo sapiens, UniProt P19525); test: radiometric HotSpot kinase assay; format: biochemical; conditions: 10 μM compound, 10 μM ATP; read-out: % Enzyme inhibition at 10 μM, PKR
T3 construct: purchased Reaction Biology Corporation (Malvern, PA)
Protocol: as §1, §2

[4] = biological target: T4, human GCN2 (Homo sapiens, UniProt Q9P2K8); test: radiometric HotSpot kinase assay; format: biochemical; conditions: ATP at the ATP Km of GCN2; means of two independent experiments
T4 construct: purchased Reaction Biology Corporation (Malvern, PA)
Protocol: as §1, §2

[5] = biological target: T5, PERK (Homo sapiens, UniProt Q9NZJ5); test: radiometric HotSpot kinase assay; format: biochemical; conditions: read-out: % Enzyme inhibition at 10 μM, PERK
T5 construct: purchased Reaction Biology Corporation (Malvern, PA)
T5 sequence (Q9NZJ5 30-1116): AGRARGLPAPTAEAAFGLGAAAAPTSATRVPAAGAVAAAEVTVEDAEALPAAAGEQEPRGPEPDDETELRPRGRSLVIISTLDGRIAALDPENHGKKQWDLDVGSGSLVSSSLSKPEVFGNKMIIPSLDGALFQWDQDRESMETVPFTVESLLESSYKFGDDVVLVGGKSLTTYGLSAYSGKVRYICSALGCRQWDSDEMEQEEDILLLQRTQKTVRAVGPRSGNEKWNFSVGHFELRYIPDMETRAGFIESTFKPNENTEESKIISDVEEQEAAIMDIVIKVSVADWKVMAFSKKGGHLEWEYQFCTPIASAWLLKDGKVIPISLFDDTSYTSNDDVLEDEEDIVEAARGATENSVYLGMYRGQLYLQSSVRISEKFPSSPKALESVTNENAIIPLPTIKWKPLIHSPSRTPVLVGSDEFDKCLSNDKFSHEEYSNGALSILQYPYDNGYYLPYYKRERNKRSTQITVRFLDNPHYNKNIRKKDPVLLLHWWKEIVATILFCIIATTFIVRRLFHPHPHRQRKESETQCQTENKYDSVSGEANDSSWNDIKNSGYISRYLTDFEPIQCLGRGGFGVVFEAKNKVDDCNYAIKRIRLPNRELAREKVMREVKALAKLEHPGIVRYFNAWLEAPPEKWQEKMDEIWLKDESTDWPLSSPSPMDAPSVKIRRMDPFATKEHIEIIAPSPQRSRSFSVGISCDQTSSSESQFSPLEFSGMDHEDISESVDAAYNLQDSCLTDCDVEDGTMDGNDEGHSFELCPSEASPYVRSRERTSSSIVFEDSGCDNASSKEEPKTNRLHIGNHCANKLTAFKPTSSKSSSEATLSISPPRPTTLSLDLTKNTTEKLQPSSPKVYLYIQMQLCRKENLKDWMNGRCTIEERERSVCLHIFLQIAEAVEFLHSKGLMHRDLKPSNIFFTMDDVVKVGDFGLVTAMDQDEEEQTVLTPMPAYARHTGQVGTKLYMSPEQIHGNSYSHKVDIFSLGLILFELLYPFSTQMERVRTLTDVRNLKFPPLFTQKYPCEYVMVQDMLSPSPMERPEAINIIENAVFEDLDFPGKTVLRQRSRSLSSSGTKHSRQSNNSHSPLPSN
Protocol: as §2, with “Serial dilutions were conducted by epMotion 5070 in DMSO.” left out, “The kinase reaction was initiated by adding ^33P ATP to a final concentration of 10 μM for single point kinase activity reading or to the ATP Km of GCN2 for IC50 readings.” left out

[6] = Kinetic solubility assay; format: physicochemical; conditions: aqueous buffer, kinetic from dmso stock; PBS pH 7.4, 25 °C, 2 h
Protocol: Compound solubility was determined in PBS at pH 7.4 by Pharmaron, Inc. (Beijing, China). Briefly, all compounds and control solutions were prepared in DMSO at concentrations of 10 mM. Diclofenac was used as a positive control. 10 μL or 30 μL of each compound was added into a 96-well plate, followed by adding 990 μL or 970 μL, respectively, of PBS at pH 7.4. A stir stick was added to each well and wells were sealed using a molded PTDE/SIL 96-Well Plate Cover. […] After incubation the samples were transferred into the filter plate and filtered by Vacuum Manifold. The filtered samples were diluted with methanol to obtain 3 μM standards (STD). The samples were analyzed by LC-MS/MS against a standard of known concentration in DMSO. The solubility values of duplicate test compounds were calculated in Microsoft Excel using the following equation, where DF means dilution factor: Sample=AREASample×INJVOLStd×DFSample×STD/AREAStd×INJVOLSample

[7] = Permeability assay (PAMPA); format: in vitro ADME; conditions: pH 7.4, 25 °C, <10 low, >10 high permeability
Protocol: GCN2 compound permeability was determined by PAMPA and was performed by Pharmaron, Inc. (Beijing, China). All compounds and control stock solutions were prepared in DMSO at a concentration of 10 mM. Testosterone and methotrexate were used as control compounds. Compound stock solutions were diluted with PBS (pH 7.4) to a final concentration of 10 μM. A 1.8% solution (w/v) of lecithin in dodecane was prepared and sonicated to ensure a complete dissolution. 5 μL of the lecithin/dodecane mixture were pipetted into each acceptor plate well (top compartment). Immediately after the application of the artificial membrane (within 10 min), 300 μL of PBS (pH 7.4) solution were added to each well of the acceptor plate. 300 μL of drug-containing solutions were added to each well of the donor plate (bottom compartment) in triplicate. The plate lid was replaced and incubated at 25 °C, 60 rpm for 16 h. After incubation, aliquots of 50 μL from each well of acceptor and donor plate were transferred into a 96-well plate and 200 μL of methanol (containing IS: 100 nM Alprazolam, 200 nM Labetalol and 2 μM Ketoprofen) was added to each well. The plate was vortexed at 750 rpm for 100 s. Samples were centrifuged at 3220g for 20 min. The compound concentrations were determined by LC/MS/MS. The effective permeability (Pe), in units of centimeter per second were calculated using the following equation: logPe=logC×−ln1−drugacceptor/drugequilibrium

[8] = tested on: GCN2; parameters: method as in PMID 25587754; conditions: biochemical inhibition of kinase activity; cited from earlier work

T3 sequence (P19525 whole entry): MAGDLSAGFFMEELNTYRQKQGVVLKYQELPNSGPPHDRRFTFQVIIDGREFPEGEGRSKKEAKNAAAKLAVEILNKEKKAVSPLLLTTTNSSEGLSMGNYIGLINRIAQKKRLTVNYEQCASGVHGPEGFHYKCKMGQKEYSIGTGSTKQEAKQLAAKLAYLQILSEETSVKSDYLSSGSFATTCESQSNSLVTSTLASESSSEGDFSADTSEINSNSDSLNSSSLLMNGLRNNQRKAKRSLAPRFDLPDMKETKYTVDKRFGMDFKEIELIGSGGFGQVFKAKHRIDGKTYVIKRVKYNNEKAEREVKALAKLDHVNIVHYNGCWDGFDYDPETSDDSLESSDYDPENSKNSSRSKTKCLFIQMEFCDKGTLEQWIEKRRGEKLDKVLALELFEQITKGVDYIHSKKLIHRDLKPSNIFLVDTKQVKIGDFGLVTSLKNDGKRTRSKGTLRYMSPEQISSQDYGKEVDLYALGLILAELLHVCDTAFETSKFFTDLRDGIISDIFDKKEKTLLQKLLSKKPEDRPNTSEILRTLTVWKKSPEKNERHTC
T4 sequence (Q9P2K8 whole entry): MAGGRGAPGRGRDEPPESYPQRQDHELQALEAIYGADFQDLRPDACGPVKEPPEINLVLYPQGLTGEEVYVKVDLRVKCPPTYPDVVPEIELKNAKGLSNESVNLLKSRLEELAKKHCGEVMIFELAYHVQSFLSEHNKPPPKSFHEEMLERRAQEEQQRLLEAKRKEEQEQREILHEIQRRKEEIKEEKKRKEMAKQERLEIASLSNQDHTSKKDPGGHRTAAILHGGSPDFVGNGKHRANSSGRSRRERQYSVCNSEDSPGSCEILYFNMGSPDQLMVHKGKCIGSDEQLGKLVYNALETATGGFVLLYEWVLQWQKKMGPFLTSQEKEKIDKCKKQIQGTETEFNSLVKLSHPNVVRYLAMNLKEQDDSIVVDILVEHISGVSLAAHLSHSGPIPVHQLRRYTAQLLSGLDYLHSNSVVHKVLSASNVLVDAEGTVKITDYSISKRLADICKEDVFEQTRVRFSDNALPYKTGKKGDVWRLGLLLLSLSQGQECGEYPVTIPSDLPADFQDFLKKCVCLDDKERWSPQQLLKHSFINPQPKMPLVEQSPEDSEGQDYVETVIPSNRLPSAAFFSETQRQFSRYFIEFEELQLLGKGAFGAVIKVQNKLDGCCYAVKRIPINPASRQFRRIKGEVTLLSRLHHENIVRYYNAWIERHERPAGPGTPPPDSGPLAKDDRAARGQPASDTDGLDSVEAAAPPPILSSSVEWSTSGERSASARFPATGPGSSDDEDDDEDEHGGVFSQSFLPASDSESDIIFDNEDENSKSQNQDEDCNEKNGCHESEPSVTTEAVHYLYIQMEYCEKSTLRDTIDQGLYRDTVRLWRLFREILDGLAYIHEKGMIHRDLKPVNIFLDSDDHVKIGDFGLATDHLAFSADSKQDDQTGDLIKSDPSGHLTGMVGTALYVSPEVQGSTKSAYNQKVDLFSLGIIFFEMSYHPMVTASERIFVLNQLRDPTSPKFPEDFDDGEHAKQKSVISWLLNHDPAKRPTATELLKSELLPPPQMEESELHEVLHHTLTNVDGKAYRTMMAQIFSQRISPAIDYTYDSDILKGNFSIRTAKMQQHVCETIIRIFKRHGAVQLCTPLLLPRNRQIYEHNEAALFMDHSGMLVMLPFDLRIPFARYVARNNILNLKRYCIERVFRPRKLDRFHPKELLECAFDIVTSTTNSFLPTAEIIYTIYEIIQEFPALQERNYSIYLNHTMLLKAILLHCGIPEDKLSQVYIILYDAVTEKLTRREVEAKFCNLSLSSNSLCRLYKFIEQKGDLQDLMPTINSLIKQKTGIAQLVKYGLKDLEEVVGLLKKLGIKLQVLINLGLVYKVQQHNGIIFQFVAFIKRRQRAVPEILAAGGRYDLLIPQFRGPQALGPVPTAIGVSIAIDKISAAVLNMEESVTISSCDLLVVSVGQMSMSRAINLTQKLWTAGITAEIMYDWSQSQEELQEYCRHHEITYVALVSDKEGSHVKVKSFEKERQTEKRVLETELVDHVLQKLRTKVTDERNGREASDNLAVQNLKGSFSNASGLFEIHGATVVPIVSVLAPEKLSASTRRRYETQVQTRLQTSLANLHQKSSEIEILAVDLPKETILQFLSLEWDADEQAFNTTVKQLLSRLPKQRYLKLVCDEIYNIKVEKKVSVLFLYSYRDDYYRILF
T1 sequence (Q9BQI3 whole entry): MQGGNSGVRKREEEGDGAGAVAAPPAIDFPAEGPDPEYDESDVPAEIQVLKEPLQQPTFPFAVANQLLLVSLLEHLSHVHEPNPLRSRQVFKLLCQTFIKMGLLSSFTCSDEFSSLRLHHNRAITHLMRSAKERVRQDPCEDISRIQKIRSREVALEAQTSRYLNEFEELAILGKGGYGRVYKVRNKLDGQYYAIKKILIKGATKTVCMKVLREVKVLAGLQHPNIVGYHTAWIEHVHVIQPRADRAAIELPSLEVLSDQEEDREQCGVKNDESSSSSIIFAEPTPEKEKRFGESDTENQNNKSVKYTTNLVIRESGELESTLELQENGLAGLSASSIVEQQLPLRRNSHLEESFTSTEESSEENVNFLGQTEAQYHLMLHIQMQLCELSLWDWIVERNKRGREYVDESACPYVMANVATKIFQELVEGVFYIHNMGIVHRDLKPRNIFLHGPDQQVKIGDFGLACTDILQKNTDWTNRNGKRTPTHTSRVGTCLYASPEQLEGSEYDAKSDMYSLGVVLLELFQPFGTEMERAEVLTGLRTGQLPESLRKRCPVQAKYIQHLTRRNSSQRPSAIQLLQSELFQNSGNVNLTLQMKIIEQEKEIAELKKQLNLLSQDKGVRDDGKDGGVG
T2 sequence (O75460 19-977): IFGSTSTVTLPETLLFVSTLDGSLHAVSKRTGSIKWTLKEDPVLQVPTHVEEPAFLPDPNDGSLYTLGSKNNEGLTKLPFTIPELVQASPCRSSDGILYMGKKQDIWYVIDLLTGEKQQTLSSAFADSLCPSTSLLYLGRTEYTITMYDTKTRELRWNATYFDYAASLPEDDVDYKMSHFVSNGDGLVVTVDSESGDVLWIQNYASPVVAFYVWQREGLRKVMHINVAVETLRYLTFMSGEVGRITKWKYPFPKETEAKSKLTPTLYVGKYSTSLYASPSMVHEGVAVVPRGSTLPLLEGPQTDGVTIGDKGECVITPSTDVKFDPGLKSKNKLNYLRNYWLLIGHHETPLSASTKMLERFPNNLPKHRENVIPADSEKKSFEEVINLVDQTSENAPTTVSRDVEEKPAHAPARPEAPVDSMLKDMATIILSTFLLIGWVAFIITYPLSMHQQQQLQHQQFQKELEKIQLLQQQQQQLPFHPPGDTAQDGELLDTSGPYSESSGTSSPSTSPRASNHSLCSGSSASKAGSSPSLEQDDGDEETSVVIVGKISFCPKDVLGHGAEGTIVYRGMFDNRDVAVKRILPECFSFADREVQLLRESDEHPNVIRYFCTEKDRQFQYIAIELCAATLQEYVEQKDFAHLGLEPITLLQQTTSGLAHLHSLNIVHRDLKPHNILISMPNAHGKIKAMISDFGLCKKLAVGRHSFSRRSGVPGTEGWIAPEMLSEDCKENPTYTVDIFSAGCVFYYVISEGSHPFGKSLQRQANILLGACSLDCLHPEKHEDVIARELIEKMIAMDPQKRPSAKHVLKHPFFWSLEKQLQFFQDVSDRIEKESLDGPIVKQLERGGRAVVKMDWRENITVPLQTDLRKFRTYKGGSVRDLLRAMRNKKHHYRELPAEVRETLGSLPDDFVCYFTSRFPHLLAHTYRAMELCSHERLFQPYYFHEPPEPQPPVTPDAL

Row | Structure (SMILES) | inhibition at 10 µM [1] | inhibition at 10 µM [2] | inhibition at 10 µM [3] | IC50 [4] | inhibition at 10 µM ([5]; 10 μM compound, 10 μM ATP) | solubility at 2 h [6] | Papp at 16 h, 10 μM [7] | IC50 [8] | inhibition at 10 µM [5]
1 | O[C@H]1CC[C@H](n2cc(Nc3ncc4nnn(-c5ccc(Cl)c(F)c5)c4n3)cn2)CC1 [Compound 8, trans-4-(4-((3-(4-chloro-3-fluorophenyl)-3H-[1,2,3]triazolo[4,5-d]pyrimidin-5-yl)amino)-1H-pyrazol-1-yl)cyclohexan-1-ol] | < 10% | 15% | 98% | 21.1 nM | < 10% | 0.1 µM (≈ 0.0429 µg/mL) | 4.68 ×10⁻⁶ cm/s |  | 
2 | Fc1cc(-n2nnc3cnc(Nc4cnn(C5CCOCC5)c4)nc32)ccc1Cl [Compound 4, 3-(4-Chloro-3-fluorophenyl)-N-(1-(tetrahydro-2H-pyran-4-yl)-1H-pyrazol-4-yl)-3H-[1,2,3]triazolo[4,5-d]pyrimidin-5-amine] | < 10% | 18% | 96% | 25.7 nM | < 10% | 0.05 µM (≈ 0.0207 µg/mL) | 2.19 ×10⁻⁶ cm/s |  | 
3 | CNc1ncc2c(F)c(-c3c(C)ccc(C(=O)c4c(-c5ccccc5)n(C)n(-c5ccccc5)c4=O)c3N)ccc2n1 [4-{2-amino-3-[5-fluoro-2-(methylamino)quinazolin-6-yl]-4-methylbenzoyl}-1-methyl-2,5-diphenyl-1,2-dihydro-3H-pyrazol-3-one] |  |  |  |  |  |  |  | 36 nM | 
4 | COC(=O)c1ccc(-n2nnc3cnc(Nc4cnn(C5CCOCC5)c4)nc32)cc1 [Compound 5, Methyl 4-(5-((1-(tetrahydro-2H-pyran-4-yl)-1H-pyrazol-4-yl)amino)-3H-[1,2,3]triazolo[4,5-d]pyrimidin-3-yl)benzoate] | < 10% | 22% | 96% | 17.2 nM | < 10% | 0.2 µM (≈ 0.0841 µg/mL) | 10.5 ×10⁻⁶ cm/s |  | 
5 | c1nn(C2CCOCC2)cc1Nc1ncc2nnn(-c3ccc4cn[nH]c4c3)c2n1 [Compound 6, 3-(1H-Indazol-6-yl)-N-(1-(tetrahydro-2H-pyran-4-yl)-1H-pyrazol-4-yl)-3H-[1,2,3]triazolo[4,5-d]pyrimidin-5-amine] |  |  |  | 20.5 nM | 35% |  |  |  | 
6 | CCOc1ccc(-n2nnc3cnc(Nc4cnn([C@H]5CC[C@H](O)CC5)c4)nc32)cc1 [Compound 7, trans-4-(4-((3-(4-Ethoxyphenyl)-3H-[1,2,3]triazolo[4,5-d]pyrimidin-5-yl)amino)-1H-pyrazol-1-yl)cyclohexan-1-ol] |  |  |  | 22.4 nM | 24% |  |  |  | 
7 | Cc1cccc(CC(=O)N2CCc3c2ccc(-c2cn(C)c4ncnc(N)c24)c3F)n1 [GSK2656157, reference compound] |  |  |  | > 10000 nM |  |  |  |  | 100%
8 | COC(=O)c1ccc(-n2nnc3cnc(Nc4cnn([C@H]5CC[C@H](O)CC5)c4)nc32)cc1 [Compound 9, methyl 4-(5-((1-(trans-4-hydroxycyclohexyl)-1H-pyrazol-4-yl)amino)-3H-[1,2,3]triazolo[4,5-d]pyrimidin-3-yl)benzoate] | < 10% | 24% | 95% | 46.4 nM | 14% | 0.17 µM (≈ 0.0739 µg/mL) | 2.29 ×10⁻⁶ cm/s |  | 
9 | CCOc1ccc(-n2nnc3cnc(Nc4cnn(C5CCOCC5)c4)nc32)cc1 [Compound 3, 3-(4-Ethoxyphenyl)-N-(1-(tetrahydro-2H-pyran-4-yl)-1H-pyrazol-4-yl)-3H-[1,2,3]triazolo[4,5-d]pyrimidin-5-amine] |  |  |  | 44.5 nM | 25% |  |  |  | 
